Active and inactive are the calls of the source.
Key:
[1] = molecular target: Arf-GAP with SH3 domain, ANK repeat and PH domain-containing protein 1 (Homo sapiens, UniProt Q9ULH1); type: functional;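 further: biochemical fluorescence polarization dose–response screen measuring inhibition of ASAP1; ASAP1 GAP domain stimulating GTP hydrolysis by truncated human ARF1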
fMet-Leu-Phe receptor = fMet-Leu-Phe receptor (Homo sapiens, UniProt P21462); experiment: FPR ligands, dose response (AID 519); type: functional
Paired box protein Pax-8 = Paired box protein Pax-8 (Homo sapiens, UniProt Q06710); experiment: inhibitors of PAX8-driven TPO luciferase reporter, dose response, RMG-I cells, cherry-pick (AID 687027); type: functional, cell-based;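 further: luciferase reporter driven by Pax8 target thyroperoxidase promoter measured by SteadyGlo luminescence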
HEK293 = experiment: HEK293T cell cytotoxicity, dose response, cytotoxicity control, ATP luminescence, cherry-pick samples (AID 687005); type: functional, cell-based; details: Homo sapiens;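 further: cells exposed to compound for 48 hours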
[2] = A2780 ovarian cancer cell cytotoxicity, dose response, cytotoxicity control, plate reader, dry powder samples (AID 743046); type: functional, cell-based
[3] = HEK293 Cytotoxicity Assay Measured in Cell-Based System Using Plate Reader - 7071-01_Inhibitor_Dose_CherryPick_Activity_Set2.; type: functional
[4] = molecular target: T1, Low molecular weight phosphotyrosine protein phosphatase (Homo sapiens, UniProt P24666); type: functional; details: read-out: IC50_Mean
[5] = molecular target: T1, Low molecular weight phosphotyrosine protein phosphatase; type: functional; details: read-out: IC50_Mean; remark: listed apart in the source
Beta-lactamase [6] = molecular target: Beta-lactamase (Salmonella choleraesuis (strain SC-B67), UniProt Q5J463); experiment: Epi-absorbance-based counterscreen for selective VIM-2 inhibitors: dose response biochemical high throughput screening assay to identify inhibitors of TEM-1 serine-beta-lactamase.
Leucine aminopeptidase = molecular target: T2, Leucine aminopeptidase (Plasmodium falciparum 3D7, UniProt Q8IL11); experiment: P. falciparum M17LAP inhibitors, primary screen, biochemical, fluorogenic H-Leu-NHMec substrate, 1536-well (AID 1619); type: functional
T2 sequence (Q8IL11 whole entry): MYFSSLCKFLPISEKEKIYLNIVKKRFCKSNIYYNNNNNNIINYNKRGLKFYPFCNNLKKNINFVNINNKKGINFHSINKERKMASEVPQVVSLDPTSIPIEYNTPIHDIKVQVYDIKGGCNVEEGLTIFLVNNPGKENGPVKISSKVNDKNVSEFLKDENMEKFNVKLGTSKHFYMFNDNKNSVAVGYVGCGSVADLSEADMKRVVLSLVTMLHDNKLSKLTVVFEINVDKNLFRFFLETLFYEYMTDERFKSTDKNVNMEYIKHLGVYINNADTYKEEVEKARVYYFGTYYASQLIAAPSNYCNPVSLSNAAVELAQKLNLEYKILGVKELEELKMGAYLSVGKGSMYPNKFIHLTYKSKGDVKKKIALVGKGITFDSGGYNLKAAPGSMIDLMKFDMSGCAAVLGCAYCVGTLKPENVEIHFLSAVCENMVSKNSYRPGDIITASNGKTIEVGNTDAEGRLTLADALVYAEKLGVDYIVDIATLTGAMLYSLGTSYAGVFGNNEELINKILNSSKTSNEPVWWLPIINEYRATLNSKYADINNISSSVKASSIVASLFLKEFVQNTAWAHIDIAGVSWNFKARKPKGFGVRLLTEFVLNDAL

Beta-lactamase [7] = molecular target: T3, Beta-lactamase (Pseudomonas aeruginosa, UniProt Q79MP6); experiment: IMP-1 metallo-beta-lactamase inhibitors, dose response, selectivity assay for VIM-2 inhibitor project, biochemical, epi-absorbance (AID 1920)
Beta-lactamase [8] = molecular target: T3, Beta-lactamase; experiment: […] counterscreen for selective VIM-2 inhibitors: dose response biochemical high throughput screening assay to identify inhibitors of IMP-1 metallo-beta-lactamase.
[9] = molecular target: T4, Heat shock factor protein 1 (Mus musculus, UniProt P38532); experiment: HSF1 potentiators in luciferase reporter cells, confirmation, cell-based, NIH3T3, luminescence, dose retest (AID 435004); type: functional;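 further: stress induced by proteasome inhibitor MG132 added 30 min after compound; luciferase reporter driven by HSF1 response element in NIH3T3 cells; actives raise luminescence as potentiators of the MG132 stress response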
T4 sequence (P38532 whole entry): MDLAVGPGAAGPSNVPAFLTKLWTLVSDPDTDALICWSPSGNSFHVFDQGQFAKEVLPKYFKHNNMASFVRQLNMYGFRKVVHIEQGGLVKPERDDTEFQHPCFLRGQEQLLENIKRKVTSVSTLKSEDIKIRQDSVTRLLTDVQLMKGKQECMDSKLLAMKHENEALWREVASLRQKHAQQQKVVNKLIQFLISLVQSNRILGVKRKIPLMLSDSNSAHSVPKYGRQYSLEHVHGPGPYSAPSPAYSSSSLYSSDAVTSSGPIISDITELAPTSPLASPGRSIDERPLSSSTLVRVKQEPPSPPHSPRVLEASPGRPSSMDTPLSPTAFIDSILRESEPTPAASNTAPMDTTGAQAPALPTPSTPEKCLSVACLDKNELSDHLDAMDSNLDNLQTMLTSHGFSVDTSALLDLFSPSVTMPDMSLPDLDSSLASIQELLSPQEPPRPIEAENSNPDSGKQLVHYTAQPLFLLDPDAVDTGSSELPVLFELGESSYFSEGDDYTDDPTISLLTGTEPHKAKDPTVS

Mu-type opioid receptor = Mu-type opioid receptor (Homo sapiens, UniProt P35372); type: functional, cell-based;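 further: U2OS cells with beta-arrestin recruitment to OPRM1 by beta-gal complementation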
[10] = molecular target: 5-hydroxytryptamine receptor 2A (Mus musculus, UniProt P35363); type: functional, cell-based;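 further: CHO-K1 cells with tagged receptor and beta-arrestin; agonist potency measured as compound-induced activation of the receptor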
[11] = cytotoxicity in OVCAR8 ovarian cancer cells, dose response, PAX8 project, cell-based, plate reader, dry powder samples (AID 743197); type: functional; details: OVCAR-8

T1 sequence (P24666 whole entry): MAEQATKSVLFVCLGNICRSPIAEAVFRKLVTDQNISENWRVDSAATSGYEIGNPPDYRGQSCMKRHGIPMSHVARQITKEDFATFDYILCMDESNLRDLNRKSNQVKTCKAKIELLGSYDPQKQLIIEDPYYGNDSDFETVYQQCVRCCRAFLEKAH
T3 sequence (Q79MP6 whole entry): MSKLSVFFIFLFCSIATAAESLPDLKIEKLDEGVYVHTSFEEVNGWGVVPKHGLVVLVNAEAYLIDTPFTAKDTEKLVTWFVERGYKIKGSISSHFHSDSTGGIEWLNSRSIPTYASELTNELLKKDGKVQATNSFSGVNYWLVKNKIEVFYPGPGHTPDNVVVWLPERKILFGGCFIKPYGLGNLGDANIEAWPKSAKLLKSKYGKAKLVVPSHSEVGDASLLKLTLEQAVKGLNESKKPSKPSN
Chain of Mu-type opioid receptor (P35372 whole entry): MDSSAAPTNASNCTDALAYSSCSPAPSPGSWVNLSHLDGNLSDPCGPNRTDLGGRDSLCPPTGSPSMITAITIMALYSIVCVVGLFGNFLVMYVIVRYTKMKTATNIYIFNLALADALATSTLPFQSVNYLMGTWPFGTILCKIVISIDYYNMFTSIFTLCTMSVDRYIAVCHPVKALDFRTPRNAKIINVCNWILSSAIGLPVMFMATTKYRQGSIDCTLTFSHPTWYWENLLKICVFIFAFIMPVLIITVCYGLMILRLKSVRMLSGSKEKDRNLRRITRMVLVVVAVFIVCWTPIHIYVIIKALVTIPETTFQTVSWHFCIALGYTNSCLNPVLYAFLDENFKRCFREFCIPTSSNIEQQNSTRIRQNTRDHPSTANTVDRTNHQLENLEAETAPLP
Chain of Arf-GAP with SH3 domain, ANK repeat and PH domain-containing protein 1 (Q9ULH1 whole entry, the tested form may be a part): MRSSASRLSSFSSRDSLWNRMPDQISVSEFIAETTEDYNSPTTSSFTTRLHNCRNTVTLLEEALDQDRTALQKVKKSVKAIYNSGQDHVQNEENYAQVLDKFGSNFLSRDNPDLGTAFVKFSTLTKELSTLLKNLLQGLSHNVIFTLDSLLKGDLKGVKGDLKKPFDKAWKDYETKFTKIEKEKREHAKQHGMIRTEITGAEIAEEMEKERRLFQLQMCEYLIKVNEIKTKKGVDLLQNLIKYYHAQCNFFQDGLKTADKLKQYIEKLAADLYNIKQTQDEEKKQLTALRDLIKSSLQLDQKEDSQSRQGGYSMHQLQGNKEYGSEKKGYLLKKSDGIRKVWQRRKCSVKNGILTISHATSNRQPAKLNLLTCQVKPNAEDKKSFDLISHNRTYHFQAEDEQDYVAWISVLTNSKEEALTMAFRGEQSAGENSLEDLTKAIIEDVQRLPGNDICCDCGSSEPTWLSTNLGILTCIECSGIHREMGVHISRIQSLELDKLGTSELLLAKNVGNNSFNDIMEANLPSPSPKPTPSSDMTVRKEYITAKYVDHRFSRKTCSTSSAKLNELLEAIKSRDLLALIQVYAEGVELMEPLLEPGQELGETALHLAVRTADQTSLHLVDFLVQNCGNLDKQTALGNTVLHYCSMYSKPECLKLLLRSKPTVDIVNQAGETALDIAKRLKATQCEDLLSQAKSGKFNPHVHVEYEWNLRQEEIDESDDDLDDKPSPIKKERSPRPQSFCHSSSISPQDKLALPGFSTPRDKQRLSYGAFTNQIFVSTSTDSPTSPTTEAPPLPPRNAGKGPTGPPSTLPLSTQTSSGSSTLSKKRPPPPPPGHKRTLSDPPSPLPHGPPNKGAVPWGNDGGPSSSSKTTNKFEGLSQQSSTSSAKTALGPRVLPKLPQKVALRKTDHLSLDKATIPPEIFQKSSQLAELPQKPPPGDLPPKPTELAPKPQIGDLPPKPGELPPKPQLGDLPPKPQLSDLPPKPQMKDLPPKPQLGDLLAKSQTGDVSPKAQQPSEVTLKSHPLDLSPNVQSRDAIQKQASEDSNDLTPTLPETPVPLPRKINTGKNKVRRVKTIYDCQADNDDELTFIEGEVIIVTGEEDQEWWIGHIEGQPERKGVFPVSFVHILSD
Chain of fMet-Leu-Phe receptor (P21462 whole entry): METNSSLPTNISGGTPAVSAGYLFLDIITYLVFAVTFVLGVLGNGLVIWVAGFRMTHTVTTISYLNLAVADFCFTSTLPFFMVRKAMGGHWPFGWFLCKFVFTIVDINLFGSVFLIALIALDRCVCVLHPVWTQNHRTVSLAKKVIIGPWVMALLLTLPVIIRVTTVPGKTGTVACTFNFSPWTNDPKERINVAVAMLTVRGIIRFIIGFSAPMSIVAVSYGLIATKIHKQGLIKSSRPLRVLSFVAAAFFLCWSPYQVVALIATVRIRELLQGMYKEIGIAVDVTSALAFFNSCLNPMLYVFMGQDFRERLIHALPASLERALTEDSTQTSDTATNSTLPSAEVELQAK
Chain of 5-hydroxytryptamine receptor 2A (P35363 whole entry): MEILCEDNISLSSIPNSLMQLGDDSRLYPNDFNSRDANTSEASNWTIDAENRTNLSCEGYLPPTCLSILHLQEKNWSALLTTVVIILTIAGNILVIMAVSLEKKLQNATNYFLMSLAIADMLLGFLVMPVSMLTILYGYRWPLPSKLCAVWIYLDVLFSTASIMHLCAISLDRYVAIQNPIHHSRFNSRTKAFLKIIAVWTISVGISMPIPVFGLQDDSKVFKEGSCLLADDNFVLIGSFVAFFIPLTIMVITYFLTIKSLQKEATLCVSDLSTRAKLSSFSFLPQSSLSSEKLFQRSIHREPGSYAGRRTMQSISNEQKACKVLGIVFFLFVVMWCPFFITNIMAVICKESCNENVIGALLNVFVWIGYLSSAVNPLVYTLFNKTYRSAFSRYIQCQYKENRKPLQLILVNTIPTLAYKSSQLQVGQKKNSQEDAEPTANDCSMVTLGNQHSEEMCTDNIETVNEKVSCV
Chain of Paired box protein Pax-8 (Q06710 whole entry): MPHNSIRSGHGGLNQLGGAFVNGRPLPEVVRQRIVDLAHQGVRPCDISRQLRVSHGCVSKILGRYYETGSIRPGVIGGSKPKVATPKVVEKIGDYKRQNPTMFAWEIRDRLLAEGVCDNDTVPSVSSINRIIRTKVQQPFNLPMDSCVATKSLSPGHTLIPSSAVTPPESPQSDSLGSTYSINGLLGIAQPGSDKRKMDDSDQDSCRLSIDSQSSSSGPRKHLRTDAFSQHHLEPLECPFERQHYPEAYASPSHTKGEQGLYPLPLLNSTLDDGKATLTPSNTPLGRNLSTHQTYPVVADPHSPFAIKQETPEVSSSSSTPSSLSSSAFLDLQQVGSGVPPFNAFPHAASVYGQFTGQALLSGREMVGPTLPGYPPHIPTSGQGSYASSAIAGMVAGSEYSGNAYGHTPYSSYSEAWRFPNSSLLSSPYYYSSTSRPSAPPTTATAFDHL
Chain of Beta-lactamase (Salmonella choleraesuis (strain SC-B67), UniProt Q5J463) (Q5J463 whole entry): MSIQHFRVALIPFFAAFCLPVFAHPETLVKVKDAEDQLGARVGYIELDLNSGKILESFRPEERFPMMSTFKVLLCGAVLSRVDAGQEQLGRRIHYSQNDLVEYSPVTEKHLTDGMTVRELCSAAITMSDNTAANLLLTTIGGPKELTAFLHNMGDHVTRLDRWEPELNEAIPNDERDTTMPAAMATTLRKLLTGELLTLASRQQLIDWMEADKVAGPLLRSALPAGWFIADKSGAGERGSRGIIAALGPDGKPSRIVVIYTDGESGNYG

Q: For `O=C(Cn1cncc1-c1ccc([N+](=O)[O-])cc1)Nc1cccc2ccccc12`, which IC50 [1] is on record?
A: 28.1 µM (inactive)

Q: Which Ki (fMet-Leu-Phe receptor) does the source give for `COc1ccc(OC)c(NC(=O)C2C3CCC(C3=C(C)C)C2C(=O)O)c1` (configuration not stated) here?
A: > 66.7 µM (inactive)

Q: What does the source list for `COc1cccc(S(=O)(=O)N(C)C[C@@H]2OCc3ccccc3-c3ccccc3C(=O)N([C@@H](C)CO)C[C@@H]2C)c1`?
A: AC50 (Paired box protein Pax-8): 15.9 µM (active); AC50 (HEK293): 36 µM (active); AC50 [2]: 53.8 µM (active); AC50 [3]: 36 µM (active)

Q: Which results are given for `COCCNc1nc(NCc2cccc(OC)c2OC)c2sccc2n1`?
A: IC50 [4]: 12.8 µM (active); IC50 [5]: 8.2 µM (active)

Q: Which IC50 (Beta-lactamase [6]) does the source give for `CC(C)(C)c1ccc(COc2ccsc2C(=O)O)cc1` here?
A: > 59.6 µM (inactive)

Q: And the IC50 (Leucine aminopeptidase)?
A: 11.5 µM (active)

Q: And the IC50 (Beta-lactamase [7])?
A: > 59.6 µM (inactive)

Q: What about the IC50 (Beta-lactamase [8]) of the same compound?
A: > 59.6 µM (inactive)

Q: And the EC50 [9]?
A: 137 µM (active)

Q: With `O=C(C[n+]1cc(-c2ccccc2)n2c1CCC2)Nc1nc(-c2ccc(F)cc2)cs1` as the compound, how does the EC50 (Mu-type opioid receptor) read?
A: 92.5 µM (inactive)

Q: And the EC50 [10]?
A: 76.1 µM (inactive)

Q: With `COc1ccc(-c2cn(CC[C@H]3CC[C@@H](NC(=O)Cc4ccccn4)[C@@H](CO)O3)nn2)cc1` as the compound, how does the AC50 [2] read?
A: 0.315 µM (active)

Q: What about the AC50 [11] of the same compound?
A: > 70 µM (inactive)

— ChEMBL document CHEMBL1201862, “PubChem BioAssay data set” (2004)
